Source: article PMC5159837, “Novel inhibitors of Mycobacterium tuberculosis GuaB2 identified by a target based high-throughput phenotypic screen” (Scientific Reports, 2016)
Values after ≈ are worked out from the molar mass of the structure shown. Values joined by “and” are separate entries in the source; they are usually repeats but may differ in a detail not shown here. Equal entries are not always repeated. Where two headings read alike, the source gives them in different places.

What was measured:
[1] = biological target: T1, Mtb GuaB2 (Mycobacterium tuberculosis, UniProt P9WKI7); test: Biochemical assay of GuaB2 inhibition; conditions: duplicate, mean
T1 construct: made in house
T1 sequence (P9WKI7 whole entry, looked up): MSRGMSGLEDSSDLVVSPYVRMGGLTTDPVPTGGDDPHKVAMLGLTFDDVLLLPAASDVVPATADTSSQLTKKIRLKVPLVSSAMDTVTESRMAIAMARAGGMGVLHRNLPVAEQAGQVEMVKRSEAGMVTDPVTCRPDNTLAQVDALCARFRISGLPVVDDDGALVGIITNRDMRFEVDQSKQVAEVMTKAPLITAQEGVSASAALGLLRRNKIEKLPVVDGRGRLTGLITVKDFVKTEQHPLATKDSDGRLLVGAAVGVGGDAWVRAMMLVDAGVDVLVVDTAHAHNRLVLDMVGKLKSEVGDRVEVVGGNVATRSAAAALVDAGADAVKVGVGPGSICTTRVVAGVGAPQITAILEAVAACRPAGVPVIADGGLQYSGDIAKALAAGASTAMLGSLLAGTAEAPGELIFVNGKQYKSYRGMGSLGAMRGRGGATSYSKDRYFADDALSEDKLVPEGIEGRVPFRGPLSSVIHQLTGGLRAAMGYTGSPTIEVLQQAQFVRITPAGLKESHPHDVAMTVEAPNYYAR
Experimental: The Mtb ortholog of the enzyme was recombinantly expressed, purified and assayed as previously described. Inhibition was determined at 0.1 mM, using 12 μg GuaB2 with the addition of 0.5% CHAPS. Each assay was normalised for DMSO concentration. Data was recorded in duplicate and analysed using Graphpad Prism 6.0.

[2] = tested on: M. tuberculosis H37Rv; test: MIC against H37Rv; format: cell-based; conditions: Mycobacterium tuberculosis
Text: Table 1 Z’ and pXC50 values for dose response validation of GuaB2 targeting compounds.

[3] = tested on: M. bovis BCG pMV261; test: microbe, parasite or virus in culture; format: cell-based; conditions: Mycobacterium tuberculosis variant bovis BCG, 168 h, read-out: pXC50 for Empty Vector (converted)
[4] = tested on: M. bovis BCG pMV261-guaB2; test: microbe, parasite or virus in culture; format: cell-based, Mycobacterium bovis BCG; conditions: for IC50: Mycobacterium tuberculosis variant bovis BCG, BCG, 168 h, 7 days, read-out: pXC50 Mean for GuaB2 (converted)
[5] = 0.1 mM compound, 12 μg GuaB2, 0.5% CHAPS, read-out: % Biochemical Inhibition of Mtb GuaB2
[6] = 0.1 mM compound, 12 μg GuaB2, 0.5% CHAPS
[7] = read-out: % Biochemical Inhibition of Mtb GuaB2, 0.1 mM compound, 12 μg GuaB2, 0.5% CHAPS

SMILES | inhibition at 100 µM [1, 5] [%] | % Biochemical Inhibition of Mtb GuaB2 [1, 6] | MIC [2] [µM] | IC50 [3] [µM] | Shift pIC50 [4] | IC50 [4] [µM] | inhibition at 100 µM [1, 7] [%]
Cc1ccc([N+](=O)[O-])cc1NC(=O)Nc1cccc(Cl)c1 [DPU-2, reference compound] | 44.6 | – | – | – | – | – | –
NNC(=O)c1ccncc1 [INH, isoniazid, reference compound] | – | −9% and −8.88% | – | – | – | – | –
CC(=O)Nc1ccc(-c2ccc3ncc(N4CCN(C)CC4)nc3c2)cn1 [JAGC_1, N-(5-(3-(4-methylpiperazin-1-yl)quinoxalin-6-yl)pyridin-2-yl)acetamide] | 23.1 | – | > 80 | 8.91 | 1.05 | ≥ 100 | –
CCOc1ccc(C(=O)Nc2cc(Cl)c3c(c2)CNCC3)cc1C(C)=O [JAGC_2, 3-acetyl-N-(5-chloro-1,2,3,4-tetrahydroisoquinolin-7-yl)-4-ethoxybenzamide] | – | 26.53% | > 80 | 8.32 | 0.84 | 57.5 | 26.5
COC(=O)c1c(NC(=O)N2CCNCC2)sc2c1CC(C)(C)OC2 [JAGC_3, methyl 5,5-dimethyl-2-(piperazine-1-carboxamido)-4,7-dihydro-5H-thieno[2,3-c]pyran-3-carboxylate] | 21.8 | – | > 80 | 10.2 | 0.99 | ≥ 100 | –
COc1ccc(Cl)c2sc(N(CCN(C)C)C(C)=O)nc12 [JAGC_4, N-(7-chloro-4-methoxybenzo[d]thiazol-2-yl)-N-(2-(dimethylamino)ethyl)acetamide] | 20.7 | – | > 80 | 22.9 | 0.64 | ≥ 100 | –
CC(C)CCN(c1ccc(C#N)c(Cl)c1)[C@H]1CCNC1 [JAGC_5, (S)-2-chloro-4-(isopentyl(pyrrolidin-3-yl)amino)benzonitrile] | 20.6 | – | > 100 | 4.37 | 0.94 | 38 | –
Clc1cc2ccccc2c(N2CCNCC2)n1 [JAGC_6, 3-chloro-1-(piperazin-1-yl)isoquinoline] | – | 15.44% | > 80 | 3.8 | 1.07 | 44.7 | 12.3
CC1CCC(NC(=O)Nc2ccc3snnc3c2)CC1 (stereo not drawn) [JAGC_7, 1-(benzo[d][1,2,3]thiadiazol-5-yl)-3-(4-methylcyclohexyl)urea] | 12.2 | – | 50 (≈ 14.5 µg/mL) | 4.17 | 0.37 | 9.77 | –
